# Data published in patent US20110105408A1, “THERAPEUTIC PEPTIDES” (INTER-K PTY LIMITED, priority 2008, published 2011).
# Test system: phospho-ERK in HT29 cells
# Assay: Phospho-ERK ELISA (FACE ERK1/2 kit) in HT29 cells
# Type: cell-based, human
# Procedure: HT29 cells were harvested using 0.5% trypsin EDTA (Invitrogen) and 5000 cells were resuspended into 200 μL, and added to each well of a clear NUNC tissue culture treated 96 well plate (NUNC). Cells were seeded in DMEM media (Invitrogen) supplemented with 10% v/v foetal calf serum (FCS, Invitrogen), 1% L-Glutamine (Invitrogen) and 2% 1M HEPES buffer solution (Invitrogen). Cells were then incubated overnight at 37° C. The following day, the growth medium was replaced with 100 μL of serum-free DMEM supplemented with 1% L-glutamine and 2% 1M HEPES buffer solution, and incubated for a further 24 hours at 37° C. Dendrimers were added to test wells in serum free medium to provide final concentrations of the dendrimers ranging from 0.1-20 μLA. The total volume of each well was 200 uL, and cells were incubated at 37° C. for times ranging from 5 minutes to 4 hours. In those studies in which cells were subjected to stimulation by serum, 22 μL FCS (10% v/v final concentration) was added to wells for the final ten minutes of the culture period at 37° C. Serum-free media (SFM) only (22 μL) was added to non-serum stimulated cells.
# Phospho-ERK levels were determined using the FACE ERK1/2 ELISA kit according to the manufacturer's instructions (Active Motif, kit obtained from Australian Biosearch, WA, Australia). Briefly, media was replaced and cells fixed with 4% formaldehyde in PBS, and after a 1 hour with antibody blocking buffer (supplied), the primary phospho-ERK or total-ERK antibody was added and incubated overnight at 4° C. Antibody dilution buffer only was added to control test wells containing no primary antibody. The next day, HRP-conjugated secondary antibody was added for one hour before plates were developed and the absorbance measured at 450 nm using a Labsystems Multiskan EX microplate reader (Labsystems, Thermo Labsystems, UK).
# The effectiveness of the peptide dendrimer IK248 described in Example 2 in inhibiting growth factor mediated activation of ERK in HT29 cancer cells (i.e., (FCS stimulated) compared to various agents comprising the polypeptide RSKAKNPLYR (SEQ ID No. 6) coupled to different peptide facilitator moieties for facilitating passage of the polypeptide across the plasma cell membrane into the cytosol of the cells was evaluated. Phospho-ERK levels in the cells following treatment with 5 μM IK248 (Dend 8) for 1 hour or polypeptide-facilitator moiety agents (each at 5 μM for the same duration) were measured essentially as described in Example 1.3. The facilitator moieties utilised were the signal peptide fragment AAVALLPAVLLALLA (SEQ ID No. 16), the TAT-G peptide GRKKRRQRRRPPQG (SEQ ID No. 17), a modified pentratin sequence Tr-Pen RRQKWKKG (SEQ ID No. 18), and the penetratin peptide RQIKIWFQNRRMKWKKCS—SC (SEQ ID No. 19) wherein S—S indicates a disulphide bridge between the adjacent cysteine residues.
# The peptide RSKAKNPLYR (SEQ ID. No. 6) or peptide dendrimers of the type illustrated in FIG. 3 comprising lysine branching units presenting either 8 (IK248) or 10 (IK248B) monomer units of the peptide RSKAKNPLYR (SEQ ID No. 6) were utilised in this study. Phospho-ERK levels were evaluated by ELISA utilising an Active Motif FACE ERK1/2 ELISA kit (Australian Biosearch, WA, Australia) as described in Example 1.3.
compound,measurement,setting,value
CC(C)C[C@H](NC(=O)[C@@H]1CCCN1C(=O)[C@H](CC(N)=O)NC(=O)[C@H](CCCCN)NC(=O)[C@H](C)NC(=O)[C@H](CCCCN)NC(=O)[C@H](CO)NC(=O)[C@@H](N)CCCNC(=N)N)C(=O)N[C@@H](Cc1ccc(O)cc1)C(=O)N[C@@H](CCCNC(=N)N)C(=O)NCCCC[C@H](NC(=O)[C@H](CCCCNC(=O)[C@H](CCCCNC(=O)[C@H](CCCNC(=N)N)NC(=O)[C@H](Cc1ccc(O)cc1)NC(=O)[C@H](CC(C)C)NC(=O)[C@@H]1CCCN1C(=O)[C@H](CC(N)=O)NC(=O)[C@H](CCCCN)NC(=O)[C@H](C)NC(=O)[C@H](CCCCN)NC(=O)[C@H](CO)NC(=O)[C@@H](N)CCCNC(=N)N)NC(=O)[C@H](CCCNC(=N)N)NC(=O)[C@H](Cc1ccc(O)cc1)NC(=O)[C@H](CC(C)C)NC(=O)[C@@H]1CCCN1C(=O)[C@H](CC(N)=O)NC(=O)[C@H](CCCCN)NC(=O)[C@H](C)NC(=O)[C@H](CCCCN)NC(=O)[C@H](CO)NC(=O)[C@@H](N)CCCNC(=N)N)NC(=O)[C@H](CCCCNC(=O)[C@H](CCCNC(=N)N)NC(=O)[C@H](Cc1ccc(O)cc1)NC(=O)[C@H](CC(C)C)NC(=O)[C@@H]1CCCN1C(=O)[C@H](CC(N)=O)NC(=O)[C@H](CCCCN)NC(=O)[C@H](C)NC(=O)[C@H](CCCCN)NC(=O)[C@H](CO)NC(=O)[C@@H](N)CCCNC(=N)N)NC(=O)[C@H](CCCNC(=N)N)NC(=O)[C@H](Cc1ccc(O)cc1)NC(=O)[C@H](CC(C)C)NC(=O)[C@@H]1CCCN1C(=O)[C@H](CC(N)=O)NC(=O)[C@H](CCCCN)NC(=O)[C@H](C)NC(=O)[C@H](CCCCN)NC(=O)[C@H](CO)NC(=O)[C@@H](N)CCCNC(=N)N)C(=O)NCCCC[C@H](NC(=O)[C@H](CCCCNC(=O)[C@H](CCCNC(=N)N)NC(=O)[C@H](Cc1ccc(O)cc1)NC(=O)[C@H](CC(C)C)NC(=O)[C@@H]1CCCN1C(=O)[C@H](CC(N)=O)NC(=O)[C@H](CCCCN)NC(=O)[C@H](C)NC(=O)[C@H](CCCCN)NC(=O)[C@H](CO)NC(=O)[C@@H](N)CCCNC(=N)N)NC(=O)[C@H](CCCCNC(=O)[C@H](CCCCNC(=O)[C@H](CCCNC(=N)N)NC(=O)[C@H](Cc1ccc(O)cc1)NC(=O)[C@H](CC(C)C)NC(=O)[C@@H]1CCCN1C(=O)[C@H](CC(N)=O)NC(=O)[C@H](CCCCN)NC(=O)[C@H](C)NC(=O)[C@H](CCCCN)NC(=O)[C@H](CO)NC(=O)[C@@H](N)CCCNC(=N)N)NC(=O)[C@H](CCCNC(=N)N)NC(=O)[C@H](Cc1ccc(O)cc1)NC(=O)[C@H](CC(C)C)NC(=O)[C@@H]1CCCN1C(=O)[C@H](CC(N)=O)NC(=O)[C@H](CCCCN)NC(=O)[C@H](C)NC(=O)[C@H](CCCCN)NC(=O)[C@H](CO)NC(=O)[C@@H](N)CCCNC(=N)N)NC(=O)[C@H](CCCCNC(=O)[C@H](CCCNC(=N)N)NC(=O)[C@H](Cc1ccc(O)cc1)NC(=O)[C@H](CC(C)C)NC(=O)[C@@H]1CCCN1C(=O)[C@H](CC(N)=O)NC(=O)[C@H](CCCCN)NC(=O)[C@H](C)NC(=O)[C@H](CCCCN)NC(=O)[C@H](CO)NC(=O)[C@@H](N)CCCNC(=N)N)NC(=O)[C@H](CCCNC(=N)N)NC(=O)[C@H](Cc1ccc(O)cc1)NC(=O)[C@H](CC(C)C)NC(=O)[C@@H]1CCCN1C(=O)[C@H](CC(N)=O)NC(=O)[C@H](CCCCN)NC(=O)[C@H](C)NC(=O)[C@H](CCCCN)NC(=O)[C@H](CO)NC(=O)[C@@H](N)CCCNC(=N)N)C(=O)NCCC(N)=O [IK248B],"phospho-ERK levels relative to control cells, dose response",HI FCS stimulated HT29 cells,decreased relative to control cells with progressively increasing dosages
same,ERK activity (as indicated by phospho-ERK levels),"HI FCS stimulated HT29 cells, 10 μM (data not shown)",entirely inhibited
same,phospho-ERK levels,"HI FCS stimulated HT29 cells, dose of 5 μM",almost totally abrogated
same,phospho-ERK levels in HT29 cells compared to normal skin fibroblast cells (selectivity for cancer cells),data not shown,significantly reduced compared to normal skin fibroblast cells
same,basal phospho-ERK level relative to control cells,"not FCS stimulated, 0.1, 0.5, 1 and 5 μM, 4 hr incubation",did not stimulate basal phospho-ERK levels
